This assay deals with human M4 receptor (Homo sapiens (Human), UniProt P08173). The assay is described as follows: Binding assay: inhibition of radioligand (tritiated N-methylscopolamine) binding to membranes from CHO cells expressing human M4 receptor. The following applies: CHO cell membranes, 1.5 nM tritiated N-methylscopolamine. The procedure:
Binding affinity (Ki) for the compounds was measured by inhibition of radioligand binding to membranes from CHO cells expressing human M4 receptor. Membranes were prepared by nitrogen cavitation and differential centrifugation as previously described (Hoare et al., Mol. Pharmacol. 2003 March; 63(3): 751-65). The radioligand employed was tritiated N-methylscopolamine, used at a concentration of 1.5 nM. A dose-response of twelve concentrations of compound was used, ranging from […]. The assay buffer was 50 mM HEPES, 100 mM NaCl, 5 mM MgCl2, 1 mM ethylenediaminetetraacetic acid, pH-adjusted to pH 7.4. Membranes, radioligand and compound were incubated together for 90 minutes at 37° C., in a total volume of 150 μL in a 96-well plate. Receptor-bound radioligand was then collected by harvesting the assay over glass fiber filters pretreated with polyethylenimine to trap the cell membranes, using rapid vacuum filtration. Harvesting and radioactivity counting was conducted as previously described (see, e.g., Hoare et al., Mol. Pharmacol. 2003 63(3):751-65); Erratum at Mol. Pharmacol. 2005 July; 68(1): 260).

Among the data in patent US20250092022A1, “MUSCARINIC RECEPTOR 4 ANTAGONISTS AND METHODS OF USE” (Neurocrine Biosciences, Inc., priority 2021, published 2025) are Ki values, retold here.

By Ki is commonly meant the equilibrium dissociation constant of an inhibitor or competing ligand from its target. Read a low Ki as higher affinity.

Sequence of human M4 receptor (P08173 whole entry): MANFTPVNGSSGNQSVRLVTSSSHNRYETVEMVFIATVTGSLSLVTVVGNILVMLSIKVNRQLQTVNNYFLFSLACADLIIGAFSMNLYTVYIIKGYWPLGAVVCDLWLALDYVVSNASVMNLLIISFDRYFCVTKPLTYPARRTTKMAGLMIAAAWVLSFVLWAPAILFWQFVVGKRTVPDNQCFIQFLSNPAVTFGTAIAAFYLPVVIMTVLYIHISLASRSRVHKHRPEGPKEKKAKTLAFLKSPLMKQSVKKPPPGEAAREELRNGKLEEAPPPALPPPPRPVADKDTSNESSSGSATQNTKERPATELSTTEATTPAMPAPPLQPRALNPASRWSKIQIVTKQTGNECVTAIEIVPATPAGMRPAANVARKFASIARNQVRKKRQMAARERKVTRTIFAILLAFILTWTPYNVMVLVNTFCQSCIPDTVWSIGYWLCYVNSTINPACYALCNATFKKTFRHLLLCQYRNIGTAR

`CC(C)S(=O)(=O)c1cnc(N2C[C@@H](C)N(C(=O)OC3CC4(C3)CN(Cc3ccccc3)C4)C[C@@H]2C)nc1` [Compound 26, 2-benzyl-2-azaspiro [3.3]heptan-6-yl (2R,5S)-2,5-dimethyl-4-[5-(propane-2-sulfonyl)pyrimidin-2-yl]piperazine-1-carboxylate] yielded a Ki of less than 100 nM.
The result for `C[C@@H]1CN(c2ncc(S(C)(=O)=O)cn2)C[C@H](C)N1C(=O)OC1CC2(C1)CN(Cc1ccc(Cl)cc1)C2` [Compound 36, 2-[(4-chlorophenyl)methyl]-2-azaspiro[3.3] heptan-6-yl (2R,6S)-4-(5-methanesulfonylpyrimidin-2-yl)-2,6-dimethyl-piperazine-1-carboxylate] reads less than 100 nM.
The value for `CCS(=O)(=O)c1cnc(N2C[C@@H](C)N(C(=O)NC3CC4(C3)CN(Cc3ccccc3)C4)C[C@@H]2C)nc1` [Compound 5, (2R,5S)-N-{2-benzyl-2-azaspiro[3.3]heptan-6-yl}-4-[5-(ethanesulfonyl)pyrimidin-2-yl]-2,5-dimethylpiperazine-1-carboxamide] was less than 100 nM.
The result for `C[C@@H]1CN(c2ccc(S(C)(=O)=O)cc2)C[C@H](C)N1C(=O)NC1CC2(C1)CN(Cc1ccccc1)C2` [Compound 9, (2R,6S)-N-{2-benzyl-2-azaspiro[3.3]heptan-6-yl}-4-(4-methanesulfonyl-phenyl)-2,6-dimethyl-piperazine-1-carboxamide] reads no less than 500 nM.
In the case of `CCS(=O)(=O)c1cnc(N2C[C@@H](C)N(C(=O)OC3CC4(C3)CN(Cc3ccccc3)C4)[C@@H](C)C2)nc1` [Compound 32, 2-benzyl-2-azaspiro [3.3]heptan-6-yl (2R,6S)-4-[5-(ethane-sulfonyl)pyrimidin-2-yl]-2,6-dimethylpiperazine-1-carboxylate], the inhibition constant (Ki) is less than 100 nM.
